Experiments:
A549 cells = assay: Cell viability assay, A549 cells; type: cell-based, human
Procedure: Cell viability was assessed with CellTiter 96® AQueous One Solution Cell Proliferation Assay (Promega, Madison, Wis.) according to according to the supplier's instructions. […] The optical density (OD) was measured using a Multilabel Counter (Bio-Rad) at a wavelength of 490 nm and cell viability was calculated by the following formula: Cell viability (%)=(OD treated cells/OD control cells)×100%. FACS Analysis

[1] = test system: A549 cells transfected with a specific EGFR shRNA; assay: Binding on A549 cells after EGFR gene silencing; set-up: species or system human; details: [32P]-labeled aptamer at 100 nM, relative to scrambled aptamer
Procedure: EGFR gene silencing in NSCLC A549 cells was established by transfection of high performance short hairpin RNA (shRNA) specifically targeting EGFR (from Expression Arrest™ Human shRNA Collection, Open Biosystems, Huntsville, Ala.). Cells (3.5×10^5 cells per 6 cm plate) were grown and overlaid with the transfection mixtures containing the shRNA (6 μg) against EGFR (referred as shRNAEGFR) and Lipofectamine 2000 (Invitrogen, Carlsbad, Calif.) in Opti-MEM I reduced serum medium (Invitrogen). After 5 hours incubation, complete culture medium was added to the cells and incubation was prolonged up to 72 hs. […] For binding assays transfected cells were plated in 24 well plates after 24 hs from transfection.
Binding experiments were performed with 5′-[^32P]-labeled RNA. […]
(§1) For binding experiments on cells, 3.5×10^4 cells were plated in 24-well plates in triplicate and were incubated with CL4 42-81 aptamer the scrambled sequence used as a negative control at 100 nM concentration in 200 μl of DMEM serum free for 20 min at RT in the presence of 100 μg/ml polyinosine as a nonspecific competitor (Sigma, St. Louis, Mo.). After five washings with 500 μl DMEM, bound sequences were recovered in 300 μl of SDS 1%, and the amount of radioactivity recovered was counted.

breast T47D = assay: Binding on T47D cells; set-up: species or system human; details: no or very low expression of EGFR; 100 nM
Procedure: (§2) Binding experiments were performed with 5′-[^32P]-labeled RNA. For labeling 2′-F-Py RNAs were 5′-end dephosphorylated using bacterial alcaline phosphatase (Invitrogen, Carlsbad, Calif.) before [^32P]-5′-end-labeled using T4 kinase (Invitrogen) and γ-[^32P]-ATP (6×10^3 Ci/mmol, GE Healthcare Bio-Sciences, Uppsala, Sweden) according to the supplier's instructions.
as §1

glioma T98G = assay: Binding on T98G cells; set-up: species or system human; details: high level of EGFR; 100 nM
Procedure: as §2, §1

A431 cells = assay: Cell viability assay, A431 cells; type: cell-based, human
Procedure: (§3) Cell viability was assessed with CellTiter 96® AQueous One Solution Cell Proliferation Assay (Promega, Madison, Wis.) according to according to the supplier's instructions. Cells (4×10^3 cells/well) were plated in 96-well plates in triplicate. and were treated for 24 hs with heat denatured CL4 42-81 or the scrambled aptamer at 3 μM concentration. RNA concentrations were determined to ensure the continuous presence of a concentration of at least 200 nM, which takes into account the 6 hs-half life of the aptamer in 10% serum. The optical density (OD) was measured using a Multilabel Counter (Bio-Rad) at a wavelength of 490 nm and cell viability was calculated by the following formula: Cell viability (%)=(OD treated cells/OD control cells)×100%. FACS Analysis

STAT 3 = assay: Immunoblot of EGF-induced STAT3 phosphorylation; type: cell-based, human; details: data not shown
Procedure: To assess the effects of aptamers on EGFR activity, A549 cells (1.5×10^5 cells per 3.5-cm plate) were serum-starved over night, pretreated with 200 nM CL4 42-81 aptamer or the scrambled aptamer used as a negative control for 3 h and then stimulated for 30 min with 50 ng/ml EGF (R&D Systems, Minneapolis, Minn.) either alone or in presence of each aptamer. The aptamers were subjected to a short denaturation-renaturation step (85° C. for 5 min, snap-cooled on ice for 2 min, and allowed to warm up to 37° C.) before each treatment. To prepare cell extracts, cells were washed twice in ice-cold PBS, and lysed in buffer A (50 mM Tris-HCl pH 8.0 buffer containing 150 mM NaCl, 1% Nonidet P-40, 2 mg/ml aprotinin, 1 mg/ml pepstatin, 2 mg/ml leupeptin, 1 mM Na3VO4). Protein concentration was determined by the Bradford assay using bovine serum albumin as the standard. The cell lysates were subjected to SDS-PAGE. […]

Calu1 = assay: Cell viability assay, Calu1 cells; type: cell-based, human; details: 200 nM-final concentration; not shown
Procedure: as §3

caspase-8 = assay: Caspase-8 in A549 xenograft tumor lysates; type: in vivo, mouse; details: pooled tumor lysates
Procedure: FIG. 8. (A) A549 cells (2,000 cells/well in 24-well plates) were treated for 24 h or 48 h with CL4 42-81 or CL4 scrambled (200 nM-final concentration) and proliferation was determined by [^3H]-thymidine incorporation. Vertical bars indicate the standard deviation values. […] Day 0 marks the first day of injection. Data are shown as means±s.e.m. (n=8 tumors). (C) Three tumors per group selected randomly were excised, lysed, and the pooled lysates were immunoblotted with anti-pEGFR, anti-EGFR, anti-caspase-3, anti-cleaved caspase-8 and anti-αtubulin antibodies, as indicated. Molecular weights of indicated proteins are reported. (D) Cell lysates as in (C) were analyzed by caspase-3 fluorimetric assays.
Athymic CD-1 nude mice (nu/nu) were housed in a highly controlled microbiological environment, thus to guarantee specific pathogen free conditions. Mice were injected subcutaneously with 3×10^6 (in 100 μl) in vitro propagated A549. Sixteen non-necrotic tumors of about 0.5 cm in diameter were randomly divided into two groups of eight mice as follows: group 1, CL4 scrambled-treated; group 2, CL4 42-81-treated. Aptamers (200 pmols/injection) were injected intra-tumorally in 100-1 μl volumes three times a week for 16 days. Tumors were measured every 2 days.

CL4 42-81: 2′-fluoropyrimidine nuclease-resistant RNA aptamer of 39 nt: 5′ GCCUUAGUAACGUGCUUUGAUGUCGAUUCGACAGGAGGC 3′ (SEQ ID No. 1) (2'-fluoro at CU, RNA at AG, backbone not given here)
sensitivity of A549 cell viability (A549 cells; 200 nM-final concentration, 24 h): highly sensitive | cell viability (A549 cells; A549, 24 hs, 200 nM final concentration, relative to untreated cells set to 100%): about 60% | effectiveness on A549 cell viability in combination with gefitinib (A549 cells; CL4 42-81 100 and 200 nM with 1 μM gefitinib, 24 h): not improved | ability to bind to A549 cells upon decreased EGFR expression [1]: significantly reduced | binding on T47D cells (breast T47D): does not bind | binding on T98G cells (glioma T98G): binds | sensitivity of A431 cell viability (A431 cells; 200 nM-final concentration, not shown): same effect | cell viability (A431 cells; A431, 24 hs, 200 nM final concentration, relative to untreated cells set to 100%): about 60% | EGF-induced phosphorylation of STAT 3 (STAT 3): decreases | sensitivity of Calu1 cell viability (Calu1): same effect | caspase-8 activation in xenograft tumors (caspase-8): activates

— patent US9125930B2, “EGFR aptamer inhibitor for use in therapy and diagnosis” (CONSIGLIO NAZIONALE DELLE RICERCHE, priority 2010, dated 2015)
